Structures are written as SMILES.

Test [1] has as its target T1, human CB1 receptor (Homo sapiens, UniProt P21554).
T1 construct: expressed in transfected cells; host or cells: HEK293
Description: bioSensAll GAPL-Gi2 BRET biosensor assay (antagonism of CP-55,940). The test is classed as cell-based. The conditions noted are these: HEK293 cells transfected with hCB1 and GAPL-Gi2 biosensor, EC75 of CP-55,940 (0.1 nM), overnight incubation, read-out: CB1 wt Gi2 IC50. Put shortly: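 HEK293 cells transiently co-transfected with hCB1 and GAPL-Gi2 BRET biosensor; ~48 h later, in HBSS, 12 compound doses ([…]) added 3–5 min before CP-55,940 at EC75 (0.1 nM). BRET ratio 515/400 nm with coelenterazine, standardized to uBRET; four-parameter logistic fit.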
Background: BRET reads energy transfer from a luciferase to a nearby fluorophore.

In test [2] the target is T1, human CB1 receptor. Description: bioSensAll β-arrestin plasma membrane translocation BRET biosensor (+GRK2) assay (antagonism of CP-55,940). The conditions noted are these: HEK293 cells transfected with hCB1 and β-arrestin PM translocation biosensor (+GRK2), EC75 of CP-55,940 (100 nM), overnight incubation, read-out: CB1 wt βarr2 IC50. The test is classed as cell-based. Put shortly: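 HEK293 cells co-transfected with hCB1 and β-arrestin plasma-membrane translocation BRET biosensor plus GRK2, tested ~48 h later in HBSS. Compounds (12 doses, 0–600 nM) added 3–5 min before CP-55,940 at EC75 of 100 nM. uBRET ratio (515/400 nm) fitted by four-parameter logistic regression.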

T1 sequence (P21554 whole entry): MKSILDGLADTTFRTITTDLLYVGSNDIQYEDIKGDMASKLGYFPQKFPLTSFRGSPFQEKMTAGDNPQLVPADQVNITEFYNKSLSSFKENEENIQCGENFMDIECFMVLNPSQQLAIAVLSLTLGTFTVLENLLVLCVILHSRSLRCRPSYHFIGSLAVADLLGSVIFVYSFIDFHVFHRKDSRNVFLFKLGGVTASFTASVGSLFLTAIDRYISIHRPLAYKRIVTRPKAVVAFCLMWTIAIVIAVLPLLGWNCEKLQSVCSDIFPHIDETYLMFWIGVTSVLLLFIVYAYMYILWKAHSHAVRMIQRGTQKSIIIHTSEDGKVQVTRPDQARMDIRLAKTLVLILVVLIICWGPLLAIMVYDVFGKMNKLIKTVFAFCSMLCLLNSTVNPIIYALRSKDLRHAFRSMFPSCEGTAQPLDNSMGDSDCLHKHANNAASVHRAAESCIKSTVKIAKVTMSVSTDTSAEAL

Consider `CNC(=O)CCN(C)c1cc(N2CCC(C)(C(N)=O)CC2)n2nc(-c3ccccc3Cl)c(-c3ccc(Cl)cc3)c2n1` [Compound 38, 1-[2-(2-chlorophenyl)-3-(4-chlorophenyl)-5-[methyl-[3-(methylamino)-3-oxo-propyl]amino]pyrazolo[1,5-a]pyrimidin-7-yl]-4-methyl-piperidine-4-carboxamide], for which the IC50 (in general, the concentration that inhibits the measured activity by half) came out at 2.48 nM in test [1] and 10.9 nM in test [2].
With `CC(C)Oc1cc(N(C)CCO)nc2c(-c3ccc(Cl)cc3)c(-c3ccccc3Cl)nn12` [Compound 12, 2-[[2-(2-chlorophenyl)-3-(4-chlorophenyl)-7-isopropoxy-pyrazolo[1,5-a]pyrimidin-5-yl]-methyl-amino]ethanol], the IC50 in test [1] was 1.69 nM; in test [2] it was 16.8 nM.
